The values below come from patent US9556165B2 (priority 2012, dated 2017).

Converted amounts (≈) assume the structure as drawn. Where two headings read alike, the source gives them in different places. Bounds are passed on as bounds.

Holding throughout (assay type): cell-based
In assay [1] the test system is S. maltophilia ICB7569. In words: MIC determination, broth microdilution (CLSI). Conditions: for MIC: Stenotrophomonas maltophilia, ICB7569, strain 10.
Assay [2] concerns H. influenzae ATCC 49247. Nature of the assay: MIC determination, broth microdilution (CLSI). Conditions: broth microdilution; for MIC: Haemophilus influenzae, ATCC49247, strain 12, read-out: MIC strain 12 (H. influenzae ATCC 49247). A general note: Dilution methods test growth across graded concentrations, often in twofold steps.
For assay [3], the system named is B. fragilis 6688. Nature of the assay: MIC determination, broth microdilution (CLSI). To be noted: broth microdilution; for MIC: Bacteroides fragilis, 6688, strain 15, read-out: MIC strain 15 (B. fragilis 6688).
Assay [4] has as its system M. morganii 126/3048. Nature of the assay: MIC determination, broth microdilution (CLSI). Conditions: for MIC: Morganella morganii, 126/3048, strain 5.
Assay [5] concerns E. coli J62. Nature of the assay: MIC determination, broth microdilution (CLSI). To be noted: broth microdilution; for MIC: Escherichia coli, J62, strain 17, read-out: MIC strain 17 (E. coli J62).
Assay [6] concerns E. coli J62-TEM-3. In words: MIC determination, broth microdilution (CLSI). Conditions: broth microdilution; for MIC: Escherichia coli, J62TEM3, read-out: MIC strain 18 (E. coli J62-TEM-3), strain 18.
In assay [7] the test system is C. perfringens DSM756. In words: microbe, parasite or virus in culture. Conditions: broth microdilution; for MIC: Clostridium perfringens, DSM756, read-out: MIC strain 16 (C. perfringens DSM756), strain 16.
For assay [8], the system named is A. baumannii ATCC15308. In words: MIC determination, broth microdilution (CLSI). To be noted: for MIC: Acinetobacter baumannii, ATCC15308, strain 9.
For assay [9], the system named is S. aureus 133. Nature of the assay: MIC determination, broth microdilution (CLSI).
The test system of assay [10] is E. coli ATCC25922. Nature of the assay: MIC determination, broth microdilution (CLSI). To be noted: for MIC: Escherichia coli, ATCC25922, strain 1.
Assay [11] relates to K. pneumoniae 60. Nature of the assay: MIC determination, broth microdilution (CLSI). Conditions: for MIC: Klebsiella pneumoniae, 60, strain 2.
Assay [12] deals with Bacteria. In words: MIC determination in combination with β-lactamase inhibitors (constant 4 μg/mL).
The subject of assay [13] is S. pneumoniae 113. In words: MIC determination, broth microdilution (CLSI). Conditions: broth microdilution; for MIC: Streptococcus pneumoniae, 113, strain 13, read-out: MIC strain 13 (S. pneumoniae 113).
The subject of assay [14] is C. freundii K21/3034. Nature of the assay: MIC determination, broth microdilution (CLSI). To be noted: for MIC: Citrobacter freundii, K21/3034, strain 4.
For assay [15], the system named is E. cloacae 34654. Nature of the assay: MIC determination, broth microdilution (CLSI). Conditions: for MIC: Enterobacter cloacae, 34654, strain 3.
In assay [16] the test system is P. aeruginosa PAO1. Nature of the assay: MIC determination, broth microdilution (CLSI). Conditions: Pseudomonas aeruginosa, PAO1, strain 6.
Assay [17] has as its system P. aeruginosa 2297 (AmpC wt). In words: MIC determination, broth microdilution (CLSI). To be noted: Pseudomonas aeruginosa, strain 7.
Assay [18] concerns P. aeruginosa 2297-con (AmpC derepressed). In words: MIC determination, broth microdilution (CLSI). Conditions: Pseudomonas aeruginosa, read-out: strain 8 MIC, strain 8.
The mark [19] stands for this setting: Staphylococcus aureus, 133, strain 14, broth microdilution, read-out: MIC strain 14 (S. aureus 133).
The mark [20] stands for this setting: Staphylococcus aureus, 133, strain 11, read-out: strain 11 MIC.

Regarding `CC1(C)[C@H](NC(=O)/C(=N\OC(CCO)COc2ccc(C(=N)N)cc2)c2csc(N)n2)C(=O)N1OS(=O)(=O)O` (single isomer, unassigned) [Example 81A], the MIC in assay [1] was 16 µg/mL (≈ 27.3 µM); in assay [2] it was 2 µg/mL (≈ 3.42 µM); in [3], 16 µg/mL (≈ 27.3 µM); in [4], 8 µg/mL (≈ 13.7 µM); in assay [5] it was 8 µg/mL (≈ 13.7 µM); in [7], 8 µg/mL (≈ 13.7 µM). Moreover, the MIC in assay [8] worked out at 8 µg/mL (≈ 13.7 µM); in assay [9] (setting [19]) it was 32 µg/mL (≈ 54.6 µM); in assay [10] it was 4 µg/mL (≈ 6.83 µM); in assay [11] it was 8 µg/mL (≈ 13.7 µM); in assay [13] it was 0.25 µg/mL (≈ 0.427 µM); in [14], 4 µg/mL (≈ 6.83 µM). In addition, the “MIC strain 18 (E. coli J62-TEM-3)” value in [6] worked out at 32 µg/mL (≈ 54.6 µM). Besides, the “MIC strain 19 (E. coli J62-TEM-3 + 4 μg/mL clavulanic acid)” value in assay [12] was found to be 8 µg/mL. Besides, the “MIC strain 20 (E. coli J62-TEM-3 + 4 μg/mL sulbactam)” value in [12] amounted to 8 µg/mL. Moreover, the “MIC strain 21 (E. coli J62-TEM-3 + 4 μg/mL tazobactam)” value in assay [12] was found to be 8 µg/mL. In addition, in assay [15], the “strain 3 MIC” value came out at 16 µg/mL.
Consider `CC1(C)[C@H](NC(=O)/C(=N\OCCOc2ccc(C(=N)N)cc2)c2csc(N)n2)C(=O)N1OCS(=O)(=O)O` [Example 90], for which the MIC in assay [1] stood at 4 µg/mL (≈ 7.2 µM); in assay [2] it was 0.5 µg/mL (≈ 0.9 µM); in assay [3] it was 4 µg/mL (≈ 7.2 µM); in assay [4] it was 0.5 µg/mL (≈ 0.9 µM); in [16], 32 µg/mL (≈ 57.6 µM); in assay [5], 1 µg/mL (≈ 1.8 µM). Further, the MIC was determined as 0.5 µg/mL (≈ 0.9 µM) in assay [6]; 16 µg/mL (≈ 28.8 µM) in assay [7]; 0.5 µg/mL (≈ 0.9 µM) in assay [9] (setting [20]); 0.5 µg/mL (≈ 0.9 µM) in assay [10]; 32 µg/mL (≈ 57.6 µM) in assay [17]; 32 µg/mL (≈ 57.6 µM) in [18]. Also, the MIC in [13] was 0.5 µg/mL (≈ 0.9 µM); in [14] it was 0.25 µg/mL (≈ 0.45 µM); in assay [15], 1 µg/mL (≈ 1.8 µM). For the same molecule, in assay [12], the “MIC strain 19 (E. coli J62-TEM-3 + 4 μg/mL clavulanic acid)” value stood at 0.5 µg/mL. Also, the “MIC strain 20 (E. coli J62-TEM-3 + 4 μg/mL sulbactam)” value in assay [12] turned out to be 0.5 µg/mL. For the same molecule, the “MIC strain 21 (E. coli J62-TEM-3 + 4 μg/mL tazobactam)” value in assay [12] turned out to be 1 µg/mL.
Consider `CC1(C)[C@H](NC(=O)/C(=N\OC(COc2ccc(C(=N)N)cc2)CC(=O)O)c2csc(N)n2)C(=O)N1OS(=O)(=O)O` (mixture of isomers) [Example 46, 3-({[(1Z)-1-(2-Amino-1,3-thiazol-4-yl)-2-{[(3S)-2,2-dimethyl-4-oxo-1-(sulfooxy)azetidin-3-yl]amino}-2-oxoethylidene]amino}oxy)-4-(4-carbamimidoylphenoxy)butanoic acid], for which the MIC in [1] came out at 8 µg/mL; in [2], 0.25 µg/mL; in [3], 32 µg/mL; in [4], 1 µg/mL; in [16] it was 8 µg/mL; in assay [5], 2 µg/mL. Also, the MIC in [6] came out at 16 µg/mL; in assay [7] it was 4 µg/mL; in assay [8] it was 16 µg/mL; in [10], 2 µg/mL; in assay [17], 32 µg/mL; in [11], 1 µg/mL. Moreover, the MIC in assay [18] amounted to 32 µg/mL; in assay [13], 1 µg/mL; in assay [14], 1 µg/mL; in assay [15], 2 µg/mL. Besides, in assay [12], the “MIC strain 19 (E. coli J62-TEM-3 + 4 μg/mL clavulanic acid)” value was 1 µg/mL. Also, in assay [12], the “MIC strain 20 (E. coli J62-TEM-3 + 4 μg/mL sulbactam)” value was 1 µg/mL. Moreover, the “MIC strain 21 (E. coli J62-TEM-3 + 4 μg/mL tazobactam)” value in assay [12] worked out at 1 µg/mL.
Take `CC1(C)[C@H](NC(=O)/C(=N\OCCCOc2ccc(C(=N)N)cc2)c2csc(N)n2)C(=O)N1OS(=O)(=O)O` [Example 58, (2Z)-2-(2-Amino-1,3-thiazol-4-yl)-2-{[3-(4-carbamimidoylphenoxy)propoxy]imino}-N-[(3S)-2,2-dimethyl-4-oxo-1-(sulfooxy)azetidin-3-yl]ethanamide]: the MIC was 0.5 µg/mL (≈ 0.9 µM) in assay [2]; 4 µg/mL (≈ 7.2 µM) in [3]; 1 µg/mL (≈ 1.8 µM) in assay [4]; 16 µg/mL (≈ 28.8 µM) in assay [16]; 4 µg/mL (≈ 7.2 µM) in assay [5]; 32 µg/mL (≈ 57.6 µM) in assay [6]. Moreover, the MIC is 4 µg/mL (≈ 7.2 µM) in assay [7]; 16 µg/mL (≈ 28.8 µM) in [8]; ≤ 0.063 µg/mL in assay [9] (setting [20]); 4 µg/mL (≈ 7.2 µM) in assay [9] (setting [19]); 2 µg/mL (≈ 3.6 µM) in assay [10]; 32 µg/mL (≈ 57.6 µM) in [17]. Also, the MIC in assay [11] was 4 µg/mL (≈ 7.2 µM); in [18], 16 µg/mL (≈ 28.8 µM); in assay [13], ≤ 0.063 µg/mL; in assay [14], 1 µg/mL (≈ 1.8 µM); in assay [15], 4 µg/mL (≈ 7.2 µM). Besides, the “MIC strain 19 (E. coli J62-TEM-3 + 4 μg/mL clavulanic acid)” value in assay [12] amounted to 2 µg/mL. For the same molecule, the “MIC strain 20 (E. coli J62-TEM-3 + 4 μg/mL sulbactam)” value in assay [12] is 2 µg/mL. The “MIC strain 21 (E. coli J62-TEM-3 + 4 μg/mL tazobactam)” value in [12] turned out to be 2 µg/mL.
Turning to `CC1(C)[C@H](NC(=O)/C(=N\O[C@@H](COc2ccc(C(=N)NCc3ncc[nH]3)cc2)C(=O)O)c2csc(N)n2)C(=O)N1OS(=O)(=O)O` [Example 104, (2S)-2-({[(1Z)-1-(2-Amino-1,3-thiazol-4-yl)-2-{[(3S)-2,2-dimethyl-4-oxo-1-(sulfooxy)azetidin-3-yl]amino}-2-oxoethylidene]amino}oxy)-3-{4-[N-(1H-imidazol-2-ylmeth-yl)carbamimidoyl]phenoxy}propanoic acid], the MIC in assay [1] is 16 µg/mL (≈ 24 µM); in [2], ≤ 0.063 µg/mL; in assay [4] it was 0.5 µg/mL (≈ 0.751 µM); in [16], 16 µg/mL (≈ 24 µM); in [5], 1 µg/mL (≈ 1.5 µM); in [6] it was 32 µg/mL (≈ 48.1 µM). For the same molecule, the MIC in assay [7] was 8 µg/mL (≈ 12 µM); in [9] (setting [20]), ≤ 0.063 µg/mL; in assay [11] it was 1 µg/mL (≈ 1.5 µM); in [13], 1 µg/mL (≈ 1.5 µM); in assay [14], 1 µg/mL (≈ 1.5 µM); in [15], 1 µg/mL (≈ 1.5 µM). The “strain 1 MIC” value in assay [10] amounted to 1 µg/mL. Further, in assay [12], the “MIC strain 19 (E. coli J62-TEM-3 + 4 μg/mL clavulanic acid)” value stood at 1 µg/mL. Besides, the “MIC strain 20 (E. coli J62-TEM-3 + 4 μg/mL sulbactam)” value in assay [12] was determined as 1 µg/mL. For the same molecule, the “MIC strain 21 (E. coli J62-TEM-3 + 4 μg/mL tazobactam)” value in [12] came out at 1 µg/mL.
In the case of `CC1(C)[C@H](NC(=O)/C(=N\OC(CCO)COc2ccc(C(=N)N)cc2)c2csc(N)n2)C(=O)N1OS(=O)(=O)O` (single isomer, unassigned) [Example 81B], the “strain 10 MIC” value in [1] (strain 10) was found to be 16 µg/mL. Besides, the “MIC strain 12 (H. influenzae ATCC 49247)” value in assay [2] (strain 12) was 2 µg/mL (≈ 3.42 µM). In addition, in assay [3] (strain 15), the “MIC strain 15 (B. fragilis 6688)” value amounted to 16 µg/mL (≈ 27.3 µM). Besides, in assay [4] (strain 5), the “strain 5 MIC” value came out at 4 µg/mL. The “MIC strain 17 (E. coli J62)” value in assay [5] (strain 17) is 4 µg/mL (≈ 6.83 µM). In addition, in assay [6], the “MIC strain 18 (E. coli J62-TEM-3)” value is 4 µg/mL (≈ 6.83 µM). Further, in assay [7] (strain 16), the “MIC strain 16 (C. perfringens DSM756)” value turned out to be 4 µg/mL (≈ 6.83 µM). Moreover, in assay [8] (strain 9), the “strain 9 MIC” value was 8 µg/mL. In addition, the “MIC strain 14 (S. aureus 133)” value in assay [9] (strain 14, broth microdilution) worked out at 32 µg/mL (≈ 54.6 µM). Besides, the “strain 1 MIC” value in assay [10] was 2 µg/mL. Further, in [11] (strain 2), the “strain 2 MIC” value is 4 µg/mL. Moreover, in assay [12], the “MIC strain 19 (E. coli J62-TEM-3 + 4 μg/mL clavulanic acid)” value amounted to 4 µg/mL, the “MIC strain 20 (E. coli J62-TEM-3 + 4 μg/mL sulbactam)” value was 4 µg/mL and the “MIC strain 21 (E. coli J62-TEM-3 + 4 μg/mL tazobactam)” value was determined as 4 µg/mL. The “MIC strain 13 (S. pneumoniae 113)” value in [13] (strain 13) was 0.125 µg/mL (≈ 0.213 µM). The “strain 4 MIC” value in assay [14] (strain 4) came out at 2 µg/mL. In assay [15], the “strain 3 MIC” value was 4 µg/mL.
